Tests used:
[1] = molecular target: T1, nomacopan (EV576, rVA576, OmCI protein, Coversin), Ornithodoros moubata, amino acids 19 to 168 of SEQ ID NO: 2 (SEQ ID NO: 4) (Ornithodoros moubata, UniProt Q5YD59); test: LTB4 binding by fluorescence titration (protein Tyr/Trp fluorescence quenching)
T1 sequence (Q5YD59 19-168): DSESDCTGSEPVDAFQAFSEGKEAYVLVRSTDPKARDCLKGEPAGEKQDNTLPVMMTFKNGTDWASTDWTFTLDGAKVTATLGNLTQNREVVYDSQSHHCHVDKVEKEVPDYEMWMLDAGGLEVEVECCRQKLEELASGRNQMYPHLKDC
Protocol: This may be carried out as follows:
Purified 100 nM solutions of nomacopan, in 2 mL PBS were applied in a quartz cuvette (10 mm path length; Hellma, Mülheim, Germany) equipped with a magnetic stirrer. Temperature was adjusted to 20° C. and, after equilibrium was reached, protein Tyr/Trp fluorescence was excited at 280 nm (slit width: 15 nm). The fluorescence emission was measured at 340 nm (slit width: 16 nm) corresponding to the emission maximum. […] For calculation of the KD value, data was normalized to an initial fluorescence intensity of 100%, the inner filter effect was corrected using a titration of 3 μM N-acetyl-tryptophanamide solution and data was plotted against the corresponding ligand concentration. Then, non-linear least squares regression based on the law of mass action for bimolecular complex formation was used to fit the data with Origin software version 8.5 (OriginLab, Northampton, Mass., USA) using a published formula (Breustedt et al., 2006).

[2] = tested on: experimental autoimmune uveitis (EAU) in C57/B16 mice; test: Experimental autoimmune uveitis (EAU), topical treatment, clinical score by fundoscopy; assay type: in vivo, mouse; conditions: twice daily 2-5 μl for 7 days, Maxidex, day 21 post immunization, n=12 eyes

SMILES | Kd [1] | clinical score compared with L-nomacopan treated mice [2]
CCCCC/C=C\C[C@@H](O)/C=C/C=C/C=C\[C@@H](O)CCCC(=O)O [LTB4, Leukotriene B4] | 0.2 to 0.3 nM | –
C[C@@H]1C[C@H]2[C@@H]3CCC4=CC(=O)C=C[C@]4(C)[C@@]3(F)[C@@H](O)C[C@]2(C)[C@@]1(O)C(=O)CO [dexamethasone] | – | in line with

Source: patent publication US20220211810A1 (priority 2019, published 2022)
